# Experimental data reported in patent EP0329295A1, “Renin inhibiting peptides with polar end groups” (THE UPJOHN COMPANY, priority 1988, dated 1989).
# *1 amine or outer side, *2 acyl side, *3 side chain or, on linkers, in order; H or OH if unused. Where a SMILES comes first, the peptide text is derived from it. [ ]: non-standard residue; d: D form. The star is where a group is joined. NH(β-GlcNAc) = CC(=O)N[C@@H]1[C@@H](O)[C@H](O)[C@@H](CO)O[C@H]1N*; X1 = CC(C)C[C@H](N[*:1])[C@@H](O)C[C@H](C(=O)[*:2])C(C)C; X2 = OC[C@H]1O[C@@H](N*)[C@@H](O)[C@@H](O)[C@@H]1O; GlcN = OC[C@H]1OC(O)[C@H](N*)[C@@H](O)[C@@H]1O; NMeH = CN[C@@H](Cc1c[nH]cn1)C(=O)O; NHCH2(2-pyridyl) = c1ccc(CN*)nc1; Boc = CC(C)(C)OC(=O)*; CO = O=C([*:1])[*:2]
# Molecular target: T1, renin (Homo sapiens, UniProt P00797)
# T1 sequence (P00797 67-406): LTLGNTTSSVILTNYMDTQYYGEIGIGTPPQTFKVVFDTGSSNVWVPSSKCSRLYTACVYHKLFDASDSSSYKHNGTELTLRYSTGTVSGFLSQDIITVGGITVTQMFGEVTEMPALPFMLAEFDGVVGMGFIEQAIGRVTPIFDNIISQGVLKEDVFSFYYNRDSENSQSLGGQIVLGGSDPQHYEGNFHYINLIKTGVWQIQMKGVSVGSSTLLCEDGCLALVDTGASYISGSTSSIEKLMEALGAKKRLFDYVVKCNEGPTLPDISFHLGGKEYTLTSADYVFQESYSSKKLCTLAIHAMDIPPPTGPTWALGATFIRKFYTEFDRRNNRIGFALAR
# Experiment: renin inhibitory activity (IC50), determined as described in EP 0173481, pages 103-105
# Type: biochemical
# Settings: renin inhibition; values given in molar units
# Description: The determination of renin inhibitory activity of the compounds of the present invention (ICso's) are well known to one of ordinary skill in the art, as, for example, described in published European application 0173481, published 5 March 1986, pages 103-105.
row,SMILES,IC50
1,"CC[C@H](C)[C@H](NC(=O)[C@@H](C[C@H](O)[C@H](CC(C)C)NC(=O)[C@H](Cc1c[nH]cn1)N(C)C(=O)[C@H](Cc1ccccc1)NC(=O)[C@@H]1CCCN1C(=O)[C@H](CC(=O)N[C@@H]1O[C@H](CO)[C@@H](O)[C@H](O)[C@@H]1O)NC(=O)OC(C)(C)C)C(C)C)C(=O)NCc1ccccn1 [Example 38, β-Man-α-N-Boc-Asn-Pro-Phe-N-MeHis-Leu[CH(OH)CH2]-Val-Ile-AMP] (Boc-D(X2)PF[NMeH][X1]I-{NHCH2(2-pyridyl)})",0.55 nM
2,"COC(=O)CC[C@H](NC(=O)[C@@H](C[C@H](O)[C@H](CC1CCCCC1)NC(=O)[C@H](Cc1c[nH]cn1)N(C)C(=O)[C@H](Cc1ccccc1)NC(=O)[C@@H]1CCCN1C(=O)NC(CO)(CO)CO)C(C)C)C(=O)NCc1ccccn1 (relative stereo) [Example 32, [1 S-[1R*,2R*,4R*(R*)]]-1-[[[2-Hydroxy-1,1-bis(hydroxymethyl)ethyl]amino]carbonyl]-L-prolyl-L-phenylalaryl-N-[1-(cyclohexylmethyl)-2-hydroxy-4-[[[4-methoxy-4-oxo-1-[[(2-pyridinylmethyl)amino]carbonyl]-butyl]-amino]carbonyl]-5-methyl-hexyl]-Nα-methyl-L-histidinamide]",0.3 nM
3,"CC[C@H](C)[C@H](NC(=O)[C@@H](C[C@H](O)[C@H](CC(C)C)NC(=O)[C@H](Cc1c[nH]cn1)N(C)C(=O)[C@H](Cc1ccccc1)NC(=O)[C@@H]1CCCN1C(=O)[C@H](CC(=O)N[C@@H]1O[C@H](CO)[C@@H](O)[C@H](O)[C@H]1NC(C)=O)NC(=O)OC(C)(C)C)C(C)C)C(=O)NCc1ccccn1 [Example 36, β-N-AcGLc-α-N-Boc-Asn-Pro-Phe-N-MeHis-Leu[CH(OH)CH2]-Val-Ile-AMP] (Boc-D(NH(β-GlcNAc))PF[NMeH][X1]I-{NHCH2(2-pyridyl)})",0.41 nM
4,"CC(C)[C@H](C[C@H](O)[C@H](CC1CCCCC1)NC(=O)[C@H](Cc1c[nH]cn1)N(C)C(=O)[C@H](Cc1ccccc1)NC(=O)[C@@H]1CCCN1C(=O)N[C@H]1C(O)O[C@H](CO)[C@@H](O)[C@@H]1O)C(=O)NC[C@H](C)O (relative stereo) [Example 29, [1 S-[1 R*,2R*,4R*(R*)]]-1-[[(2-Deoxy-D-glucopyranos-2-yl)amino]carbonyl]-L-Prolyl-L-phenylalaryl-N-[1-(cyclohexylmethyl)-2-hydroxy-4-[[(2-hydroxypropyl)-amino]carbonyl]-5-methylhexyl]-Nα-methyl-L-histidinamide]",1.5 nM
5,"CC[C@H](C)[C@H](NC(=O)[C@@H](C[C@H](O)[C@H](CC(C)C)NC(=O)[C@H](Cc1c[nH]cn1)N(C)C(=O)[C@H](Cc1ccccc1)NC(=O)[C@@H]1CCCN1C(=O)N[C@H]1C(O)O[C@H](CO)[C@@H](O)[C@@H]1O)C(C)C)C(=O)NCc1ccccn1 (stereo partly drawn) [Example 9, N-(Glucosaminocarbonyl)-Pro-Phe-N(Me)His-LVA-lie-AMP] ({GlcN-CO}-PF[NMeH][X1]I-{NHCH2(2-pyridyl)})",0.49 nM

# Same assay, conditions: renin inhibition; values in nM
row,SMILES,IC50
1,"CC(C)C[C@H](O)[C@H](O)[C@H](CC1CCCCC1)NC(=O)[C@H](Cc1c[nH]cn1)N(C)C(=O)[C@H](Cc1ccccc1)NC(=O)[C@@H]1CCCN1C(=O)N[C@H]1C(O)O[C@H](CO)[C@@H](O)[C@@H]1O (relative stereo) [Example 13, L-Histadinamide, 1-([(2-deoxy-D-glucopyranos-2-yl)amino]carbonyl]-L-prolyl-L-phenylalanyl-N-[1-(cyclohexylmethyl)-2,3-dihydroxy-5-methylhexyl]-N.aIpha.-methyl-, [1 S-(1 R*,2S*,3R(*)]]-]",2.4 nM
2,"COc1ccc(C[C@H](NC(=O)[C@@H]2CCCN2C(=O)NC(CO)(CO)CO)C(=O)N[C@@H](Cc2c[nH]cn2)C(=O)N[C@@H](CC2CCCCC2)[C@@H](O)[C@@H](O)CC(C)C)cc1 [Example 14, L-Histidinamide, 1-[[[2-hydroxy-1,1-bis(hydroxymethyl)ethyl]amino]carbonyl]-L-prolyl-O-methyl-L-tyrosyl-N-[1-(cyclohexylmethyl)-2,3-dihydroxy-5-methylhexyl]-, [1S-(1R*,2S*,3R*)]-]",0.21 nM
3,"CC(C)C[C@H](O)[C@H](O)[C@H](CC1CCCCC1)NC(=O)[C@H](Cc1c[nH]cn1)N(C)C(=O)[C@H](Cc1ccccc1)NC(=O)[C@@H]1CCCN1C(=O)NC(CO)(CO)CO (relative stereo) [Example 12, L-Histidinamide, 1-[[[2-hydroxy-1,1-bis(hydroxymethyl)ethyl]amino]carbonyl]-L-prolyl-L-phenylalanyl-N-[1 (cyclohexylmethyl)-2,3-dihydroxy-5-methylhexyl]-Nα-methyl-, [1 S-(1 R*,2S*,3R*)-]-]",0.26 nM
4,COc1ccc(C[C@H](NC(=O)[C@@H]2CCCN2C(=O)N[C@H]2C(O)O[C@H](CO)[C@@H](O)[C@@H]2O)C(=O)N[C@@H](Cc2c[nH]cn2)C(=O)N[C@@H](CC2CCCCC2)[C@@H](O)[C@@H](O)CC(C)C)cc1 (relative stereo) [Example 15],2.3 nM
